Patent publication US11180504B2 (ORCHID PHARMA LTD., priority 2016, dated 2021)
≈ marks a conversion by molar mass, not a printed value.

Experiments:
[1] = test system: carbapenem sensitive Escherichia coli; experiment: MIC by broth micro-dilution (CLSI), carbapenem sensitive E. coli; assay type: cell-based; conditions: Escherichia coli, ATCC25922, ESBL −ve E. coli ATCC25922; read-out: MIC
[2] = test system: extended spectrum β lactamase (ESBL) SHV18 producing Klebsiella pneumoniae; experiment: MIC by broth micro-dilution (CLSI), ESBL SHV18 producing K. pneumoniae; assay type: cell-based; conditions: Klebsiella pneumoniae, ATCC700603, 22 h, ESBL +ve (SHV-18) K. pneumoniae ATCC700603; read-out: MIC
[3] = test system: carbapenemase producing K. pneumoniae; experiment: MIC by broth micro-dilution (CLSI), carbapenemase producing K. pneumoniae; assay type: cell-based, Klebsiella pneumoniae; conditions: Klebsiella pneumoniae, ATCCBAA1705, KPC-2 K. pneumoniae ATCC BAA-1705; read-out: MIC
[4] = test system: methicillin-sensitive Staphylococcus aureus; experiment: MIC by broth micro-dilution (CLSI), methicillin-sensitive S. aureus; assay type: cell-based; conditions: Staphylococcus aureus, ATCC 29213 / MSSA, MSSA S. aureus ATCC29213; read-out: MIC
[5] = test system: carbapenem sensitive Pseudomonas aeruginosa; experiment: MIC by broth micro-dilution (CLSI), carbapenem sensitive P. aeruginosa; assay type: cell-based; conditions: Pseudomonas aeruginosa, ATCC27853, Meropenem susceptible P. aeruginosa ATCC27853; read-out: MIC

MIC [1] [µg/mL] | MIC [2] [µg/mL] | MIC [3] [µg/mL] | MIC [4] [µg/mL] | MIC [5] [µg/mL] | SMILES
4 (≈ 8.2 µM) | 64 (≈ 131 µM) | 16 (≈ 32.8 µM) | 4 (≈ 8.2 µM) | 64 (≈ 131 µM) | C[C@@H](NC(=O)C(F)F)[C@H]1C(=O)N2C(C(=O)O)=C(S[C@@H]3CN[C@H](CN4CC[C@H](N)C4)C3)[C@H](C)[C@H]12 [Example 150]
1 (≈ 1.64 µM) | 16 (≈ 26.2 µM) | 16 (≈ 26.2 µM) | 4 (≈ 6.56 µM) | > 128 | C[C@@H](NC(=O)C(F)F)[C@H]1C(=O)N2C(C(=O)O)=C(S[C@@H]3CN[C@H](C(=O)NCCC(=O)NOCc4ccccc4)C3)[C@H](C)[C@H]12 [Example 111]
0.5 (≈ 0.997 µM) | 4 (≈ 7.98 µM) | 8 (≈ 16 µM) | 0.5 (≈ 0.997 µM) | 8 (≈ 16 µM) | C[C@@H](NC(=O)C(F)F)[C@H]1C(=O)N2C(C(=O)O)=C(S[C@@H]3CN[C@H](C(=O)N4CC[C@H](N)C4)C3)[C@H](C)[C@H]12 [Example 103]
1 | 4 | 16 | 4 | 128 | CC(F)C(=O)N[C@H](C)[C@H]1C(=O)N2C(C(=O)O)=C(S[C@@H]3CN[C@H](C(=O)N(C)C)C3)[C@H](C)[C@H]12 (mixture of isomers) [Example 84]
0.5 (≈ 0.995 µM) | 1 (≈ 1.99 µM) | 4 (≈ 7.96 µM) | 16 (≈ 31.8 µM) | 64 to 128 (≈ 127 to 255 µM) | C[C@@H](NS(C)(=O)=O)[C@H]1C(=O)N2C(C(=O)O)=C(S[C@@H]3CN[C@H](C(=O)N4CCOCC4)C3)[C@H](C)[C@H]12 [Example 27]
0.5 (≈ 1.14 µM) | 4 (≈ 9.08 µM) | 4 (≈ 9.08 µM) | 4 (≈ 9.08 µM) | 128 (≈ 291 µM) | COC(=O)N[C@H](C)[C@H]1C(=O)N2C(C(=O)O)=C(S[C@@H]3CN[C@H](C(=O)N(C)C)C3)[C@H](C)[C@H]12 [Example 14]
4 (≈ 7.57 µM) | 128 (≈ 242 µM) | 128 (≈ 242 µM) | 2 (≈ 3.78 µM) | > 128 | CNCCN(CC#N)C(=O)[C@@H]1C[C@H](SC2=C(C(=O)O)N3C(=O)[C@H]([C@@H](C)NC(=O)C(F)F)[C@H]3[C@H]2C)CN1 [Example 171]
1 (≈ 1.79 µM) | 4 (≈ 7.16 µM) | 4 (≈ 7.16 µM) | 2 (≈ 3.58 µM) | 8 (≈ 14.3 µM) | C[C@@H](NC(=O)C(F)F)[C@H]1C(=O)N2C(C(=O)O)=C(S[C@@H]3CN[C@H](C(=O)N4CCN(C(=O)CN)CC4)C3)[C@H](C)[C@H]12 [Example 159]
4 (≈ 8.32 µM) | 32 (≈ 66.6 µM) | 8 (≈ 16.6 µM) | > 128 | 16 (≈ 33.3 µM) | CNCC(=O)N[C@H](C)[C@H]1C(=O)N2C(C(=O)O)=C(S[C@@H]3CN[C@H](C(=O)N4CC(N)C4)C3)[C@H](C)[C@H]12 [Example 189]
1 (≈ 1.79 µM) | 2 (≈ 3.58 µM) | 8 (≈ 14.3 µM) | 8 (≈ 14.3 µM) | 64 (≈ 115 µM) | C[C@@H](NC(=O)C(F)F)[C@H]1C(=O)N2C(C(=O)O)=C(S[C@@H]3CN[C@H](C(=O)N4CC[C@H](NCC(N)=O)C4)C3)[C@H](C)[C@H]12 [Example 153]
1 (≈ 1.89 µM) | 8 (≈ 15.1 µM) | 8 (≈ 15.1 µM) | 2 (≈ 3.78 µM) | 128 (≈ 242 µM) | C[C@@H](NS(=O)(=O)CC(F)(F)F)[C@H]1C(=O)N2C(C(=O)O)=C(S[C@@H]3CN[C@H](C(=O)N(C)C)C3)[C@H](C)[C@H]12 [Example 86]
8 (≈ 14.4 µM) | > 128 | > 128 | 32 (≈ 57.6 µM) | > 128 | C[C@@H](NS(=O)(=O)C(F)(F)F)[C@H]1C(=O)N2C(C(=O)O)=C(S[C@@H]3CN[C@H](C(=O)N4CC[C@@H](N)C4)C3)[C@H](C)[C@H]12 [Example 204]
2 (≈ 3.33 µM) | 16 (≈ 26.6 µM) | 8 (≈ 13.3 µM) | 4 (≈ 6.66 µM) | 32 (≈ 53.3 µM) | C[C@@H](NC(=O)C(F)F)[C@H]1C(=O)N2C(C(=O)O)=C(S[C@@H]3CN[C@H](C(=O)N(C)CCC(=O)N4CCCNCC4)C3)[C@H](C)[C@H]12 [Example 174]
16 (≈ 30.2 µM) | 128 (≈ 242 µM) | 64 (≈ 121 µM) | 8 (≈ 15.1 µM) | > 128 | C[C@@H](NC(=O)[C@@H](N)Cc1ccccc1)[C@H]1C(=O)N2C(C(=O)O)=C(S[C@@H]3CN[C@H](C(=O)N(C)C)C3)[C@H](C)[C@H]12 [Example 71]
1 (≈ 2.03 µM) | 8 (≈ 16.2 µM) | 4 to 8 (≈ 8.12 to 16.2 µM) | 4 (≈ 8.12 µM) | > 128 | C[C@@H](NC(=O)CC(F)(F)F)[C@H]1C(=O)N2C(C(=O)O)=C(S[C@@H]3CN[C@H](C(=O)N(C)C)C3)[C@H](C)[C@H]12 [Example 40]
0.5 (≈ 1 µM) | 2 to 4 (≈ 4.02 to 8.04 µM) | 2 to 4 (≈ 4.02 to 8.04 µM) | 2 to 8 (≈ 4.02 to 16.1 µM) | 32 to 64 (≈ 64.3 to 129 µM) | C[C@@H](NS(C)(=O)=O)[C@H]1C(=O)N2C(C(=O)O)=C(S[C@@H]3CN[C@H](CNS(N)(=O)=O)C3)[C@H](C)[C@H]12 [Example 7]

MIC [1] [µg/mL] | MIC [2] [µg/mL] | MIC [3] [µg/mL] | MIC [4] [µg/mL] | MIC [5] [µg/mL] | SMILES
1 (≈ 1.92 µM) | 4 (≈ 7.67 µM) | 2 (≈ 3.83 µM) | 32 (≈ 61.3 µM) | 4 (≈ 7.67 µM) | CNCC(=O)N[C@H](C)[C@H]1C(=O)N2C(C(=O)O)=C(S[C@@H]3CN[C@H](C(=O)N4CC[C@H](NC=N)C4)C3)[C@H](C)[C@H]12 [Example 199]
1 (≈ 1.64 µM) | 4 (≈ 6.57 µM) | 8 (≈ 13.1 µM) | 4 (≈ 6.57 µM) | 8 (≈ 13.1 µM) | C[C@@H](NC(=O)C(F)F)[C@H]1C(=O)N2C(C(=O)O)=C(S[C@@H]3CN[C@H](C(=O)N4CC[C@H](NS(=O)(=O)CCN)C4)C3)[C@H](C)[C@H]12 [Example 133]
2 (≈ 3.93 µM) | 128 (≈ 252 µM) | 64 (≈ 126 µM) | 2 (≈ 3.93 µM) | > 128 | C[C@@H](NC(=O)OCC(F)(F)F)[C@H]1C(=O)N2C(C(=O)O)=C(S[C@@H]3CN[C@H](C(=O)N(C)C)C3)[C@H](C)[C@H]12 [Example 47]
1 (≈ 2.12 µM) | 8 (≈ 16.9 µM) | 8 (≈ 16.9 µM) | 1 (≈ 2.12 µM) | 64 (≈ 135 µM) | C[C@@H](NC(=O)C(F)F)[C@H]1C(=O)N2C(C(=O)O)=C(S[C@@H]3CNC(CN4CCCC4)C3)[C@H](C)[C@H]12 (stereo partly shown) [Example 81]
0.5 (≈ 0.966 µM) | 2 (≈ 3.86 µM) | 4 (≈ 7.73 µM) | 1 (≈ 1.93 µM) | 8 (≈ 15.5 µM) | C[C@@H](NC(=O)C(F)F)[C@H]1C(=O)N2C(C(=O)O)=C(S[C@@H]3CN[C@H](C(=O)N4C[C@@H](O)[C@@H](N)C4)C3)[C@H](C)[C@H]12 [Example 213]
128 (≈ 276 µM) | > 128 | > 128 | 16 (≈ 34.5 µM) | > 128 | C[C@@H](NC(=O)C(F)F)[C@H]1C(=O)N2C(C(=O)O)=C(SCCNC(=O)OC(C)(C)C)[C@H](C)[C@H]12 [Example 93]
8 (≈ 16.2 µM) | > 128 | 64 (≈ 130 µM) | > 128 | 128 (≈ 260 µM) | CNCC(=O)N[C@H](C)[C@H]1C(=O)N2C(C(=O)O)=C(S[C@@H]3CN[C@H](Cn4cc(CN)nn4)C3)[C@H](C)[C@H]12 [Example 181]
1 (≈ 1.94 µM) | 8 (≈ 15.5 µM) | 8 (≈ 15.5 µM) | 2 (≈ 3.88 µM) | 4 (≈ 7.76 µM) | CN[C@@H]1CCN(C(=O)[C@@H]2C[C@H](SC3=C(C(=O)O)N4C(=O)[C@H]([C@@H](C)NC(=O)C(F)F)[C@H]4[C@H]3C)CN2)C1 [Example 149]
0.5 (≈ 0.821 µM) | 2 (≈ 3.29 µM) | 4 (≈ 6.57 µM) | 2 (≈ 3.29 µM) | > 128 | C[C@@H](NC(=O)C(F)F)[C@H]1C(=O)N2C(C(=O)O)=C(S[C@@H]3CN[C@H](C(=O)N4CC[C@H](NS(=O)(=O)N(C)C)C4)C3)[C@H](C)[C@H]12 [Example 117]
2 (≈ 4.31 µM) | 2 (≈ 4.31 µM) | 2 (≈ 4.31 µM) | 8 (≈ 17.3 µM) | 32 (≈ 69 µM) | C[C@H]([C@H]1C(=O)N2C(C(=O)O)=C(SC3CN[C@H](C(=O)N(C)C)C3)[C@H](C)[C@H]12)n1cc(CN)nn1 (stereo partly shown) [Example 177]
0.5 (≈ 1.38 µM) | 4 (≈ 11 µM) | 4 (≈ 11 µM) | 1 (≈ 2.75 µM) | 32 (≈ 88.1 µM) | C[C@@H](NC(=O)C(F)F)[C@H]1C(=O)N2C(C(=O)O)=C(SCCN)[C@H](C)[C@H]12 [Example 92]
2 (≈ 3.87 µM) | 8 (≈ 15.5 µM) | 16 (≈ 31 µM) | 8 (≈ 15.5 µM) | 16 (≈ 31 µM) | C[C@@H](NC(=O)C(F)F)[C@H]1C(=O)N2C(C(=O)O)=C(S[C@@H]3CN[C@H](C(=O)N4C[C@H](N)[C@@H](N)C4)C3)[C@H](C)[C@H]12 [Example 194]
2 (≈ 4.14 µM) | 2 (≈ 4.14 µM) | 4 to 8 (≈ 8.29 to 16.6 µM) | 8 (≈ 16.6 µM) | 4 to 8 (≈ 8.29 to 16.6 µM) | CCOC(=O)C(=O)N[C@H](C)[C@H]1C(=O)N2C(C(=O)O)=C(S[C@@H]3CN[C@H](C(=O)N(C)C)C3)[C@H](C)[C@H]12 [Example 28]
1 (≈ 1.66 µM) | 4 (≈ 6.66 µM) | 8 (≈ 13.3 µM) | 2 (≈ 3.33 µM) | 32 (≈ 53.3 µM) | C[C@@H](NC(=O)C(F)F)[C@H]1C(=O)N2C(C(=O)O)=C(S[C@@H]3CN[C@H](C(=O)N4CC[C@H](NC(=O)CNC(=N)N)C4)C3)[C@H](C)[C@H]12 [Example 196]
4 (≈ 7.07 µM) | 8 (≈ 14.1 µM) | 4 (≈ 7.07 µM) | 64 (≈ 113 µM) | 8 (≈ 14.1 µM) | CNCC(=O)N[C@H](C)[C@H]1C(=O)N2C(C(=O)O)=C(S[C@@H]3CN[C@H](C(=O)N4CCC(NC(=O)CN)CC4)C3)[C@H](C)[C@H]12 [Example 193]
0.5 (≈ 0.966 µM) | 1 (≈ 1.93 µM) | 2 to 4 (≈ 3.86 to 7.73 µM) | 1 to 2 (≈ 1.93 to 3.86 µM) | 32 to 64 (≈ 61.8 to 124 µM) | C[C@@H](NC(=O)C(F)F)[C@H]1C(=O)N2C(C(=O)O)=C(S[C@@H]3CN[C@H](C(=O)N4CC[C@H](ON)C4)C3)[C@H](C)[C@H]12 [Example 148]
